Experimental data from PubChem BioAssay (NCI).
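Interpolation was linear, between the two tested concentrations surrounding the appropriate level; five concentrations were tested over 48 hours in 96-well plates. The concentration for 50% growth inhibition is given as GI50. TGI denotes the concentration required for complete inhibition of growth.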

Experiments:
Experiment in all cases: NCI tumour cell line growth inhibition, 48 h
[1] = tested on: HCT-15 colon
[2] = tested on: OVCAR-3 ovarian
[3] = tested on: SR leukemia
[4] = tested on: SNB-75 CNS
[5] = tested on: PC-3 prostate
[6] = tested on: A498 renal
[7] = tested on: KM12 colon
[8] = tested on: COLO 205 colon
[9] = tested on: NCI-H23 lung
[10] = tested on: CCRF-CEM leukemia

## O=C1C=CC(=O)c2c(O)c3c(c(O)c21)C[C@H](O)[C@H](O)[C@@H]3O
[1]
  TGI: 7.19 µM
[2]
  TGI: 3.88 µM
[3]
  TGI: > 100 µM
[4]
  TGI: 7.99 µM
[5]
  TGI: 8.34 µM
[6]
  TGI: 13.3 µM
[7]
  TGI: 16.8 µM
[8]
  TGI: 1.12 µM
[9]
  TGI: 4.67 µM

## C=CCC(N[C@H](CO)c1ccccc1)c1cn(Cc2ccccc2Cl)c(=O)n(Cc2ccccc2Cl)c1=O (some centres not stated)
[1]
  GI50: 9.27 µM
  TGI: 35.2 µM
[2]
  GI50: 8.8 µM
  TGI: 43.8 µM
[4]
  GI50: 16.6 µM
  TGI: 64.8 µM
[5]
  GI50: 4.03 µM
  TGI: 26.7 µM
[6]
  GI50: 11 µM
  TGI: 39.1 µM
[7]
  GI50: 17.5 µM
  TGI: 73.3 µM
[8]
  GI50: 14.7 µM
  TGI: 86.8 µM
[10]
  GI50: 10.6 µM
  TGI: 42.5 µM
[9]
  GI50: 19.5 µM
  TGI: 62.1 µM

## C/C(=C(\c1ccc(OCCN2CCCCCC2)cc1)c1ccc(OC(=O)c2ccccc2)cc1)c1ccc(Cl)cc1
[1]
  GI50: 1.4 µM
  TGI: 5.99 µM
[2]
  GI50: 4.06 µM
  TGI: 8.49 µM
[3]
  GI50: 0.996 µM
  TGI: 3.33 µM
[5]
  GI50: 2.36 µM
  TGI: 8.45 µM
[6]
  GI50: 3.79 µM
  TGI: 8.09 µM
[7]
  GI50: 3.14 µM
  TGI: 8.72 µM
[8]
  GI50: 2.31 µM
  TGI: 7.76 µM
[10]
  GI50: 4.2 µM
  TGI: 16.4 µM
[9]
  GI50: 4.73 µM
  TGI: 11 µM

## COc1cccc(Nc2nc3ccccc3c3occc23)c1
[1]
  GI50: 13.2 µM
  TGI: > 100 µM
[2]
  GI50: 9.1 µM
  TGI: 21.2 µM
[3]
  GI50: 21.2 µM
  TGI: 95 µM
[5]
  GI50: 13.8 µM
  TGI: 34.3 µM
[7]
  GI50: 3.13 µM
  TGI: 10.7 µM
[8]
  GI50: 9.49 µM
  TGI: 22 µM
[9]
  GI50: 10.2 µM
  TGI: 22.6 µM

## O=C(c1ccc(Cl)cc1)C(O)c1ccc(Cl)cc1 (configuration not stated)
[1]
  TGI: > 100 µM
[2]
  TGI: > 100 µM
[3]
  TGI: > 100 µM
[4]
  TGI: > 100 µM
[5]
  TGI: > 100 µM
[7]
  TGI: > 100 µM
[8]
  TGI: > 100 µM
[10]
  TGI: > 100 µM
[9]
  TGI: > 100 µM

## COc1ccc(/C=C2/SC(Nc3nc(-c4nc(NC5=NC(=O)/C(=C\c6ccc(OC)cc6)S5)sc4C)c(C)s3)=NC2=O)cc1
[1]
  GI50: 0.397 µM
  TGI: 7.82 µM
[2]
  GI50: 0.188 µM
  TGI: 3.25 µM
[3]
  GI50: 0.14 µM
  TGI: > 50 µM
[5]
  GI50: 0.787 µM
  TGI: 9.95 µM
[6]
  GI50: 0.806 µM
  TGI: 4.22 µM
[7]
  GI50: 0.196 µM
  TGI: 5.77 µM
[8]
  GI50: 2.42 µM
  TGI: > 50 µM
[10]
  GI50: 1.68 µM
  TGI: > 50 µM
[9]
  GI50: 0.944 µM
  TGI: 4.97 µM

## O=C(NCC1CCCO1)c1ccc(NC2=C(Cl)C(=O)N(Cc3ccccc3)C2=O)cc1 (configuration not stated)
[1]
  GI50: 19 µM
  TGI: 62.3 µM
[2]
  GI50: 3.18 µM
  TGI: 10.7 µM
[3]
  GI50: 12.4 µM
  TGI: 30.9 µM
[4]
  GI50: 20 µM
  TGI: 39.3 µM
[5]
  GI50: 11.4 µM
  TGI: 25 µM
[6]
  GI50: 22.2 µM
  TGI: 41.9 µM
[7]
  GI50: 17.1 µM
  TGI: 35 µM
[8]
  GI50: 23 µM
  TGI: 71.9 µM
[9]
  GI50: 17.2 µM
  TGI: 34.3 µM

## Cn1c2c(c3c(Cl)nncc31)Cc1ccccc1-2
[1]
  GI50: 22.2 µM
  TGI: > 100 µM
[2]
  GI50: 31 µM
  TGI: > 100 µM
[4]
  GI50: 76.8 µM
  TGI: > 100 µM
[5]
  GI50: 31.8 µM
  TGI: > 100 µM
[6]
  GI50: 11.4 µM
  TGI: 34.5 µM
[7]
  GI50: 32.8 µM
  TGI: > 100 µM
[8]
  GI50: 15.3 µM
  TGI: 50.2 µM
[10]
  GI50: 15.3 µM
  TGI: > 100 µM
[9]
  GI50: 18.7 µM
  TGI: 49 µM

## O=C1O/C(=C/c2ccccc2)C(c2ccccc2)=C1O
[1]
  TGI: > 100 µM
[2]
  TGI: 44.1 µM
[4]
  TGI: > 100 µM
[5]
  TGI: > 100 µM
[6]
  TGI: 85.6 µM
[7]
  TGI: > 100 µM
[8]
  TGI: > 100 µM
[10]
  TGI: > 100 µM
[9]
  TGI: 44.7 µM

## CC(=O)N1N=C(c2ccc(Nc3nc(Nc4ccc(F)cc4)nc(Nc4ccc(F)cc4)n3)cc2)CC1c1ccc(N(C)C)cc1 (configuration not stated)
[1]
  GI50: 2.41 µM
  TGI: 7.43 µM
[2]
  GI50: 5.23 µM
  TGI: 20.3 µM
[4]
  GI50: 1.51 µM
  TGI: 9.89 µM
[5]
  GI50: 1.6 µM
  TGI: 6.97 µM
[6]
  GI50: 5.58 µM
  TGI: 26.8 µM
[7]
  GI50: 3.34 µM
  TGI: 12.4 µM
[8]
  GI50: 5.73 µM
  TGI: 22.6 µM
[10]
  GI50: 3.36 µM
  TGI: 49.9 µM
[9]
  GI50: 4.1 µM
  TGI: 26.7 µM

## Cc1cc2c(-c3nc4ccccn4c3N)c(O)c(O)cc2c(O)c1-c1c(C)cc2c(-c3nc4ccccn4c3N)c(O)c(O)cc2c1O
[1]
  GI50: 0.58 µM
  TGI: > 25 µM
[2]
  GI50: 1.36 µM
  TGI: > 25 µM
[3]
  GI50: 1.96 µM
  TGI: > 25 µM
[4]
  GI50: 1.02 µM
  TGI: > 25 µM
[5]
  GI50: 0.692 µM
  TGI: > 25 µM
[7]
  GI50: 0.227 µM
  TGI: > 25 µM
[8]
  GI50: 1.07 µM
  TGI: > 25 µM
[10]
  GI50: 0.497 µM
  TGI: > 25 µM
[9]
  GI50: 0.543 µM
  TGI: > 25 µM
